Experimental data: the NIST ThermoML archive (doi:10.1016/j.jct.2008.01.014)
± gives the expanded uncertainty stated by the source.

Settings: Liquid, Ebulliometric method (Recirculating still)

SMILES	vapor or sublimation pressure (273.15 K)	vapor or sublimation pressure (288.15 K)	vapor or sublimation pressure (303.15 K)	vapor or sublimation pressure (318.15 K)	vapor or sublimation pressure (333.15 K)	vapor or sublimation pressure (348.15 K)
CC(F)(F)F [1,1,1-trifluoroethane]	626 ± 3 kPa	972 ± 4 kPa	1442 ± 6 kPa	2063 ± 9 kPa	2875 ± 12 kPa	
C=C(C)C [2-methylpropene]	133 ± 2 kPa	224 ± 2 kPa	353 ± 2 kPa	538 ± 3 kPa	787 ± 4 kPa	1110 ± 5 kPa
